Where two headings read alike, the source gives them in different places.
Columns and labels:
hNAMPT protein = hNAMPT protein (Homo sapiens (Human), UniProt P43490); test: NAMPT enzyme assay (TR-FRET/HTRF with BodiPY ligand); type: binding; conditions: for inhibition at 1 µM: read-out: Percent Inhibition; for IC50: NAMPT inhibition, IC50 range class
Source text: As discussed above, the invention provides compounds that are useful as inhibitors of the enzyme NAMPT. The NAMPT inhibition of a compound of the invention can be measured using a variety of methods known in the art. For example, the ability of a compound of the invention to inhibit NAMPT enzyme activity can be measured using a homogeneous time resolved fluorescence (HTRF) assay using hNAMPT protein and anti 6His-Tb in buffer treated with a compound of the invention (or control e.g., DMSO) and BodiPY ligand. The TR-FRET signal can be measured using a high throughput microplate reader (e.g., Pherastar). Excitation can be carried out at 320 nm. The percent inhibition value at a single concentration of compound of the invention can be calculated relative to a control treated sample. A concentration response curve can be generated for each compound of the invention and the curve fitted to generate an IC50 value. […] To measure the inhibition of NAMPT activity hNAMPT protein stock and anti 6His-Tb (Cisbio; Cat. No. […]TLB) is diluted to 3× final concentration with assay buffer (50 mM Tris-HCl (pH 7.5), 1 mM DTT, 100 mM NaCl, 10 mM MgCl2, 0.005% Tween 20). To this solution is added a test compound or vehicle control (DMSO) and BodiPY ligand (structure below). The plate is shaken for 1-2 min sealed and incubated for 1 h at rt in the dark. The TR-FRET signal is measured using BMG Pherastar (Lanthascreen protocol on BMG Pherastar). Excitation was carried out at 320 nm, and the ratio of emission of BodiPY (520 nm) to terbium (486 nm) was determined. Concentration response curves are generated by calculating the excitation increase in test compound-treated samples relative to DMSO-treated controls. For the assay method described above, test compound percent inhibition values at a single concentration are calculated relative to control (DMSO) treated samples. Compound concentration response curves are fitted to generate IC50 values from those curves. One skilled in the art will appreciate that these values generated either as percentage inhibition at a single concentration or IC50 values are subject to experimental variation.

PC3 cells = test: PC3 growth inhibition (Cell-titer glo, 72 hours); type: cell-based; conditions: Homo sapiens, PC-3, 72 h, read-out: Percent Viability, PC3 cells, compound concentration 1.667 μM, 72 hours
Protocol: The invention also provides compounds that inhibit cell growth. The ability of a compound of the invention to inhibit the growth of cells can be measured using a variety of methods known in the art. For example, the ability of a compound of the invention to inhibit the growth of PC3 cells can be measured. PC3 cells can be plated and incubated overnight under CO2. For each measurement, a compound of the invention (or vehicle e.g., DMSO) can be diluted with AIM serum free medium and added to the cell plate. The cell plate can then be incubated for 72 h under CO2. Cell-titer glo solution can be added and the plates can be incubated protected from light and the amount of luminescences can be measured. Concentration response curves can be generated by calculating the luminescence increase in test compound treated samples relative to DMSO-treated controls. Percentage remaining viability values at a single concentration can be measured. Growth inhibition (GI50) or cell viability (LD50) values can be determined from thoses curves. In one embodiment, compounds of the invention have a percent viability in PC3 line @ 1.667 uM of <1%. In one embodiment, compounds of the invention have a percent viability in PC3 line @ 1.667 uM of <2%. In one embodiment, compounds of the invention have a percent viability in PC3 line @ 1.667 uM of <3%. In one embodiment, compounds of the invention have a percent viability in PC3 line @ 1.667 uM of <4%. In one embodiment, compounds of the invention have a percent viability in PC3 line @ 1.667 uM of <5%. In one embodiment, compounds of the invention have a percent viability in PC3 line @ 1.667 uM of <10%. In one embodiment, compounds of the invention have a percent viability in PC3 line @ 1.667 uM of <50%.
To measure PC3 growth inhibition, PC3 cells that were maintained in RPMI1640 growth medium (Life Technologies; Cat. No. 11875) at 37° C. under 5% CO2 are trypsinized and diluted at a density of 8×10^4 cells/ml, 25 ul per well of cells and plated in 384-well black tissue culture plate. The cells are incubated overnight at 37° C. under 5% CO2. For each measurement, a test compound or vehicle DMSO control is diluted with AIM serum free medium and added to the cell plate. The cell plate is incubated for 72 hours at 37° C. under 5% CO2. 25 μl Cell-titer glo solution (Promega; Cat. No. G8462) is added and the cell plates are incubated for 10 minutes protected from light. The luminescence is measured. Concentration response curves are generated by calculating the luminescence increase in test compound-treated samples relative to DMSO-treated controls. Percentage remaining viability values at a single concentration, growth inhibition (GI50) or cell viability (LD50) values are determined from those curves. One skilled in the art will appreciate that these values are subject to experimental variation.

[1] = NAMPT inhibition at compound concentration 1 μM

Chain of hNAMPT protein (P43490 whole entry): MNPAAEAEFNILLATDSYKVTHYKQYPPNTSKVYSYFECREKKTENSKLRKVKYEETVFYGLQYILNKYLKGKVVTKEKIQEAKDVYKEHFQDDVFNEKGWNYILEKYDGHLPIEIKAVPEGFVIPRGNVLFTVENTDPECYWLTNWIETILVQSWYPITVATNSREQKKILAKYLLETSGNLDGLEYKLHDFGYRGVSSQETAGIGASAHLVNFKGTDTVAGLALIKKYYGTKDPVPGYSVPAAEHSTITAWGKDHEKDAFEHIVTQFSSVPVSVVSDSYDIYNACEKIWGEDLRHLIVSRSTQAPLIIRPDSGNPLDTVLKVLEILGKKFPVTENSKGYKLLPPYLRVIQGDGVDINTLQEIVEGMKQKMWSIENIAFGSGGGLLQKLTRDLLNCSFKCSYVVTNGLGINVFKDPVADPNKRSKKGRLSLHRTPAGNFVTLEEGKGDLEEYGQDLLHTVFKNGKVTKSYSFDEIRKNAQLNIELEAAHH

Row | SMILES | inhibition at 1 µM (hNAMPT protein; [1]) [%] | IC50 (hNAMPT protein) [nM] | viability at 1.667 µM (PC3 cells) [%] | inhibition at 1 µM (hNAMPT protein) [%]
1 | CCCc1nc(-c2ccc(F)cc2)nc2cc(C(=O)NCCCc3ncc[nH]3)ccc12 [Compound I-16, 2-(4-fluorophenyl)-N-[3-(1H-imidazol-2-yl)propyl]-4-propylquinazoline-7-carboxamide] | 100 | < 10 | 0 | –
2 | CC(C)Oc1cc(-c2ccc(F)cc2)nc2cc(C(=O)NCCCc3ncc[nH]3)ccc12 [Compound I-17, 2-(4-fluorophenyl)-N-[3-(1H-imidazol-2-yl)propyl]-4-isopropoxyquinoline-7-carboxamide] | 99 | < 10 | 0 | –
3 | CCOc1nc(-c2ccc(F)cc2)nc2cc(C(=O)NCC(C)Cc3ncc[nH]3)ccc12 (stereo not drawn) [Compound I-18, 4-ethoxy-2-(4-fluorophenyl)-N-[3-(1H-imidazol-2-yl)-2-methylpropyl]quinazoline-7-carboxamide] | 99 | 10 to 50 | 0 | –
4 | CCOc1nc(-c2ccc(F)cc2)nc2cc(C(=O)NCCCc3cncnc3)ccc12 [Compound I-19, 4-ethoxy-2-(4-fluorophenyl)-N-[3-(pyrimidin-5-yl)propyl]quinazoline-7-carboxamide] | > 99 | < 10 | 1 | –
5 | CCOCc1nc(-c2ccc(Cl)cc2)nc2cc(C(=O)NCCCc3ncc[nH]3)ccc12 [Compound I-20, 2-(4-chlorophenyl)-4-(ethoxymethyl)-N-[3-(1H-imidazol-2-yl)propyl]quinazoline-7-carboxamide] | 98 | 10 to 50 | 1 | –
6 | CC(C)Cc1nc(-c2ccc(Cl)cc2)nc2cc(C(=O)NCCCc3ncc[nH]3)ccc12 [Compound I-21, 2-(4-chlorophenyl)-N-[3-(1H-imidazol-2-yl)propyl]-4-isobutylquinazoline-7-carboxamide] | 99 | 10 to 50 | 0 | –
7 | CCc1nc(-c2ccc(Cl)s2)nc2cc(C(=O)NCCCc3ncc[nH]3)ccc12 [Compound I-22, 2-(5-chloro-2-thienyl)-4-ethyl-N-[3-(1H-imidazol-2-yl)propyl]quinazoline-7-carboxamide] | > 99 | 10 to 50 | 1 | –
8 | CC(C)Cc1nc(-c2ccc(Cl)s2)nc2cc(C(=O)NCCCc3ncc[nH]3)ccc12 [Compound I-23, 2-(5-chloro-2-thienyl)-N-[3-(1H-imidazol-2-yl)propyl]-4-isobutylquinazoline-7-carboxamide] | > 99 | 10 to 50 | 1 | –
9 | CCCc1nc(-c2ccc(Cl)s2)nc2cc(C(=O)NCCCc3ncc[nH]3)ccc12 [Compound I-24, 2-(5-chloro-2-thienyl)-N-[3-(1H-imidazol-2-yl)propyl]-4-propylquinazoline-7-carboxamide] | > 99 | < 10 | 1 | –
10 | COCc1nc(-c2ccc(Cl)cc2)nc2cc(C(=O)NCCCc3ncc[nH]3)ccc12 [Compound I-25, 2-(4-chlorophenyl)-N-[3-(1H-imidazol-2-yl)propyl]-4-(methoxymethyl)quinazoline-7-carboxamide] | – | < 10 | 0 | 99
11 | O=C(NCCCc1ncc[nH]1)c1ccc2c(CN3CCSCC3)nc(-c3ccc(Cl)cc3)nc2c1 [Compound I-26, 2-(4-chlorophenyl)-N-[3-(1H-imidazol-2-yl)propyl]-4-(thiomorpholin-4-ylmethyl)quinazoline-7-carboxamide] | 89 | > 100 | 1 | –
12 | CCSc1nc(-c2ccc(F)cc2)nc2cc(C(=O)NCCCc3ncc[nH]3)ccc12 [Compound I-27, 4-(ethylsulfanyl)-2-(4-fluorophenyl)-N-[3-(1H-imidazol-2-yl)propyl]quinazoline-7-carboxamide] | – | < 10 | 1 | 98
13 | CCOc1nc(-c2ccc(Cl)s2)nc2cc(C(=O)NCc3ccc4nccn4c3)ccc12 [Compound I-28, 2-(5-chloro-2-thienyl)-4-ethoxy-N-(imidazo[1,2-a]pyridin-6-ylmethyl)quinazoline-7-carboxamide] | 99 | < 10 | 1 | –
14 | CCOc1nc(-c2ccc(F)cc2)nc2cc(C(=O)NCCCc3ccnnc3)ccc12 [Compound I-29, 4-ethoxy-2-(4-fluorophenyl)-N-[3-(pyridazin-4-yl)propyl]quinazoline-7-carboxamide] | 100 | < 10 | 1 | –
15 | CC(C)(C)OCc1nc(-c2ccc(Cl)cc2)nc2cc(C(=O)NCCCc3ncc[nH]3)ccc12 [Compound I-30, 4-(tert-butoxymethyl)-2-(4-chlorophenyl)-N-[3-(1H-imidazol-2-yl)propyl]quinazoline-7-carboxamide] | 91 | 50 to 100 | 1 | –
16 | O=C(NCCCc1ncc[nH]1)c1ccc2c(C3CC3)nc(-c3ccc(Cl)cc3)nc2c1 [Compound I-31, 2-(4-chlorophenyl)-4-cyclopropyl-N-[3-(1H-imidazol-2-yl)propyl]quinazoline-7-carboxamide] | 97 | 10 to 50 | 1 | –
17 | CCOc1nc(-c2ccc(F)cc2)nc2cc(C(=O)NCCCc3ncc[nH]3)ccc12 [Compound I-32, 4-ethoxy-2-(4-fluorophenyl)-N-[3-(1H-imidazol-2-yl)propyl]quinazoline-7-carboxamide] | > 99 | < 10 | 2 | –
18 | CCc1nc(-c2ccc(Cl)cc2)nc2cc(C(=O)NCCCc3ncc[nH]3)ccc12 [Compound I-33, 2-(4-chlorophenyl)-4-ethyl-N-[3-(1H-imidazol-2-yl)propyl]quinazoline-7-carboxamide] | 97 | 10 to 50 | 1 | –
19 | CCOc1nc(-c2ccc(F)cc2)nc2cc(C(=O)NCc3ccc4nccn4c3)ccc12 [Compound I-34, 4-ethoxy-2-(4-fluorophenyl)-N-(imidazo[1,2-a]pyridin-6-ylmethyl)quinazoline-7-carboxamide] | 97 | < 10 | 1 | –
20 | CCOc1nc(-c2ccc(Cl)s2)nc2cc(C(=O)NCCCc3ncc[nH]3)ccc12 [Compound I-35, 2-(5-chloro-2-thienyl)-4-ethoxy-N-[3-(1H-imidazol-2-yl)propyl]quinazoline-7-carboxamide] | > 99 | < 10 | 1 | –

Reference: patent publication US10323018B2 (Millennium Pharmaceuticals, Inc., priority 2015, dated 2019)
